From patent publication US10611777B2, “Imidazopyridazine compounds and their use” (HUTCHISON MEDIPHARMA LIMITED, priority 2014, dated 2020)
pIC50: −log10 of the molar value. Where two headings read alike, the source gives them in different places.

Experiments:
Type in all cases: biochemical
PI3K-β (p110β/p85α) = PI3K-β (p110β/p85α) (Homo sapiens (Human), UniProt P42338); experiment: Fluorescent determination of PI3K enzyme activity (Transcreener KINASE Assay), PI3K-β; settings: for PI3K-β IH%: inhibition rate at 1 μM;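 on all read-outs here: Far-red fluorescence polarization immunoassay detecting ADP produced by the kinase, 80 min enzyme reaction at room temperature, inhibition relative to ADP formed in 2% DMSO control wells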
Description: (§1) PI3K kinases including p110α/p85α and p110γ were purchased from Invitrogen, p110δ/p85α and p110β/p85α were from Millipore.
(§2) It is a universal, homogenous, high throughput screening (HTS) technology using a far-red, competitive fluorescence polarization immunoassay based on the defection of ADP to monitor the activity of enzymes that catalyze group transfer reactions. […] The reaction mixture was added into desired wells of a 96-well plate. The plate was sealed and incubated for 80 min at room temperature. • 2) Next, 25 uL ADP detection mix was added into each well. The plate was sealed again and incubated for 60 min at room temperature. Then fluorescence polarization was measured by Tecan Infinite F500 Reader.
(§3) Data was analyzed and IC50 values were generated using the add-in software for Microsoft Excel, Xlfit™ (version 5.3).
(§4) Inhibition rates were calculated as follow: IH %=(ADP amount under 2% DMSO well−ADP amount under test compound well)/ADP amount under 2% DMSO well×100%.

PI3K-γ (p110γ) = PI3K-γ (p110γ) (Homo sapiens (Human), UniProt P48736); experiment: Fluorescent determination of PI3K enzyme activity (Transcreener KINASE Assay), PI3K-γ; settings: for PI3K-γ IH%: inhibition rate at 1 μM;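 on all read-outs here: p110γ enzyme reaction for 80 min at room temperature, ADP formed measured by far-red competitive fluorescence polarization immunoassay, inhibition relative to wells with 2% DMSO only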
Description: as §1, §2, §3, §4

PI3K-δ (p110δ/p85α) = PI3K-δ (p110δ/p85α) (Homo sapiens (Human), UniProt O00329); experiment: Fluorescent determination of PI3K enzyme activity (Transcreener KINASE Assay), PI3K-δ; settings: for PI3K-δ IH%: inhibition rate at 1 μM
Chain of PI3K-δ (p110δ/p85α) (O00329 whole entry, species assumed): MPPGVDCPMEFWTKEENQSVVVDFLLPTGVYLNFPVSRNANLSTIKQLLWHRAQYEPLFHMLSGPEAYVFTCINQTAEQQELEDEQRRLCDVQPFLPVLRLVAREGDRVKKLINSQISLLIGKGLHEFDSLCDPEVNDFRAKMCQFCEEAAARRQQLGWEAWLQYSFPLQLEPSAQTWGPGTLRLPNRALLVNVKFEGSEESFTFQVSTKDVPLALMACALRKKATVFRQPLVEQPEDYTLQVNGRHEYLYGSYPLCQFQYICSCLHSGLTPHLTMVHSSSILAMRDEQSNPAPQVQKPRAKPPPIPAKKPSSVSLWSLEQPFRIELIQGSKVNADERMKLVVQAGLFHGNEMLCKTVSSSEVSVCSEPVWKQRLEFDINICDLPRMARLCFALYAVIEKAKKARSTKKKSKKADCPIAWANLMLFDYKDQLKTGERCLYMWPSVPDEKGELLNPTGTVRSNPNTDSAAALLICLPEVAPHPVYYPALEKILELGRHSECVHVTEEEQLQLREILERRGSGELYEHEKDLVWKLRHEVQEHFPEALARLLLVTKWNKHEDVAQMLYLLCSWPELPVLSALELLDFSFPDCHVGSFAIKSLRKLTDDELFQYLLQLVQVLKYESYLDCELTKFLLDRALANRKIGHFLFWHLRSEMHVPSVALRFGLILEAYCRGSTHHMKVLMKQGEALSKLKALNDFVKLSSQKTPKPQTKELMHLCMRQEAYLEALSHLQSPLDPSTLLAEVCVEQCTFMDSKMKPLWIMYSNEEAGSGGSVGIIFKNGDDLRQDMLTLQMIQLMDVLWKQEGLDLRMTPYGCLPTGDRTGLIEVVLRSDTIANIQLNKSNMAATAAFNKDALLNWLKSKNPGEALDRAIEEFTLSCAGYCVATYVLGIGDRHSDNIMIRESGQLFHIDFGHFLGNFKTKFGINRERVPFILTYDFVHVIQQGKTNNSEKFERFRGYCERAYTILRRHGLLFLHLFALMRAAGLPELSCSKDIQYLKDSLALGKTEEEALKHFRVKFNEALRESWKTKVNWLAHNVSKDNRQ
Chain of PI3K-δ (p110δ/p85α) (P27986 whole entry partner, species assumed): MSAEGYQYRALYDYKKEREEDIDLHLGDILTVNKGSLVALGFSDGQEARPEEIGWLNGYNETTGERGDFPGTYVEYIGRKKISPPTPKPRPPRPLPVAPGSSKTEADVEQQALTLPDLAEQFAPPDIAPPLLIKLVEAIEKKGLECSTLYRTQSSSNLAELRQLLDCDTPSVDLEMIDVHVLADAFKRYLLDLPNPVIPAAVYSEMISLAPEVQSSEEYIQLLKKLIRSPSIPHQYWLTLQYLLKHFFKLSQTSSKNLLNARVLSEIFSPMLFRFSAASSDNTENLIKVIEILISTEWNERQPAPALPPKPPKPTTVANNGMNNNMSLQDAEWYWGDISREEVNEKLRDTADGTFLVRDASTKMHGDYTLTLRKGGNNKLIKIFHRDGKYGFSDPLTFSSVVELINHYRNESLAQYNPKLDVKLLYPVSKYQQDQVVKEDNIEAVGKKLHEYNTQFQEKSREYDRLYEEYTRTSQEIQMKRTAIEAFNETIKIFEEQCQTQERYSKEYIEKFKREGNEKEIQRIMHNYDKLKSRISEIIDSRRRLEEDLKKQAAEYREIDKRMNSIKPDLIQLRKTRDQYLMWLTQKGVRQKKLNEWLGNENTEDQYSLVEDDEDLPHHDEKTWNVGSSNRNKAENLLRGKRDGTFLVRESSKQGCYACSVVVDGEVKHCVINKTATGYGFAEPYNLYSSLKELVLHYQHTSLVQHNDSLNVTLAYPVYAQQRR
Description: as §1, §2, §3, §4

Chain of PI3K-γ (p110γ) (P48736 whole entry, species assumed): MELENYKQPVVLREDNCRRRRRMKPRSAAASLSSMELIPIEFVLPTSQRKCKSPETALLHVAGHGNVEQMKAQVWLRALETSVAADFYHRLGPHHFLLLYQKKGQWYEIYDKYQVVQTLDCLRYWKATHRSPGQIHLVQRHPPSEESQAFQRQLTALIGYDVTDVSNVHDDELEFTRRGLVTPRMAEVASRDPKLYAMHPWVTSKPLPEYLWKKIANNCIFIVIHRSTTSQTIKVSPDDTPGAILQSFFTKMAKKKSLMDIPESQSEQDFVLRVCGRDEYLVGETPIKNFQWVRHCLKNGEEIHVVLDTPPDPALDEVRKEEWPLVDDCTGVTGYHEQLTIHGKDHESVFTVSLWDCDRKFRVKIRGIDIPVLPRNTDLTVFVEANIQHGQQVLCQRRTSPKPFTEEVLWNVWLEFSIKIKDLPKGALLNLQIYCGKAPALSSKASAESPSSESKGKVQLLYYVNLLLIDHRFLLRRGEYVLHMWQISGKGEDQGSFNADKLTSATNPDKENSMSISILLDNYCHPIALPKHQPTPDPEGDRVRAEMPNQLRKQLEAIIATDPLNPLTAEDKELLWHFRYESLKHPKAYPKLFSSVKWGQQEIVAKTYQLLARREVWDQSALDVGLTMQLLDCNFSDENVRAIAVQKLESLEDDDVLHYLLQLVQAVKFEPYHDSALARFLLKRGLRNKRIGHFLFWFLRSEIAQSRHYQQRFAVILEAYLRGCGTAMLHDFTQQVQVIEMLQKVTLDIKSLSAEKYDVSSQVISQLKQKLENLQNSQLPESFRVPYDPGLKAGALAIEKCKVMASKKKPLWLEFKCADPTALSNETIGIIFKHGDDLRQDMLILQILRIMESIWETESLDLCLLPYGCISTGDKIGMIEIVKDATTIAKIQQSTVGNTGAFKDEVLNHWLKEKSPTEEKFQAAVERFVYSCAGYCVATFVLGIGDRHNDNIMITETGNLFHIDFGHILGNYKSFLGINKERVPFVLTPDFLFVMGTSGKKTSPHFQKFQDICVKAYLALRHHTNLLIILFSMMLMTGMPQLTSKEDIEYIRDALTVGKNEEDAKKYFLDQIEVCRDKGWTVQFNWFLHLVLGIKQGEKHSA
Chain of PI3K-β (p110β/p85α) (P42338 whole entry, species assumed): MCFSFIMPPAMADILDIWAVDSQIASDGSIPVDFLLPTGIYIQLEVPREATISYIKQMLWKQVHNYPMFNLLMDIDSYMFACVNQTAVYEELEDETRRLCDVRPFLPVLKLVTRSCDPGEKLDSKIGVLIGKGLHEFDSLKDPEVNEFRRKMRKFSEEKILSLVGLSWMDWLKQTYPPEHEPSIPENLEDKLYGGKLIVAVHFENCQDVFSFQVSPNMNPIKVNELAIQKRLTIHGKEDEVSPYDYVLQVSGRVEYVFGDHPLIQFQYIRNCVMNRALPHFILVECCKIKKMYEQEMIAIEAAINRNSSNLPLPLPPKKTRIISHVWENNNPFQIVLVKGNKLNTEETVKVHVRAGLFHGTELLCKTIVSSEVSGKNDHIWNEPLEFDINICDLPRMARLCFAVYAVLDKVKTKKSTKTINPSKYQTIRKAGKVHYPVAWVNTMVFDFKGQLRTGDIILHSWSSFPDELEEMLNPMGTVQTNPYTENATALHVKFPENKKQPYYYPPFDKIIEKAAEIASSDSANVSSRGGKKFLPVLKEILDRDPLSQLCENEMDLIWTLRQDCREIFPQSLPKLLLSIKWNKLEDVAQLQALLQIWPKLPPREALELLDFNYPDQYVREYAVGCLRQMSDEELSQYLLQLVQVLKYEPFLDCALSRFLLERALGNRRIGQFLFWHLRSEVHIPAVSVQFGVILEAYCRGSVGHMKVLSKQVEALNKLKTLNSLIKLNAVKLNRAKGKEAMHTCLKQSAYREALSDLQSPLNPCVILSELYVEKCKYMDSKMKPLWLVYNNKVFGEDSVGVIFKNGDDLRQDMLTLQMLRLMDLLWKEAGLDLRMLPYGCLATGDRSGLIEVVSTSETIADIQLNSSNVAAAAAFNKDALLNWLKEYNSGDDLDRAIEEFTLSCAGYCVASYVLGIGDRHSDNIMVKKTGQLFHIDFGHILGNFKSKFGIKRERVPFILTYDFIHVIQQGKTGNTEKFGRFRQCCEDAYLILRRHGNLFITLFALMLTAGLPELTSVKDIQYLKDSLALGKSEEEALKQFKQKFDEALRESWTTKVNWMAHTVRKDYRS
Chain of PI3K-β (p110β/p85α) (P27986 whole entry partner, species assumed): as the sequence (P27986 whole entry partner, species assumed) above

Row | Compound | PI3K-β IH% (PI3K-β (p110β/p85α)) [%] | PI3K-γ IH% (PI3K-γ (p110γ)) [%] | further results
1 | CCC(Nc1ncnc2[nH]cnc12)c1cc2ncc(Cl)n2nc1-c1ccccc1F (single isomer, unassigned) [Compound 25] | – | – | pIC50 (PI3K-δ (p110δ/p85α)): 8.40; pIC50 (PI3K-γ (p110γ)): 5.59
2 | CC[C@@H](Nc1ncnc(N)c1C#N)c1cc2ncc(Cl)n2nc1-c1cccc(F)c1 [Compound 43, (R)-4-amino-6-((1-(3-chloro-6-(3-fluorophenyl)imidazo[1,2-b]pyridazin-7-yl)propyl)amino)pyrimidine-5-carbonitrile] | 23.6 | 27.2 | –
3 | CCC(Nc1ncnc2[nH]cnc12)c1cc2ncc(Cl)n2nc1-c1ccccc1F (centres unmarked) [Compound 25] | 22.8 | – | –
4 | CCC(Nc1ncnc2[nH]cnc12)c1cc2ncc(Cl)n2nc1-c1ccccc1 (centres unmarked) [Compound 18] | 42 | – | –
5 | C[C@H](Nc1nc[n+]([O-])c(N)c1C#N)c1cc2ncc(Cl)n2nc1-c1ccccc1 [Compound 51, (S)-6-amino-4-((1-(3-chloro-6-phenylimidazo[1,2-b]pyridazin-7-yl)ethyl)amino)-5-cyanopyrimidine 1-oxide] | −15.5 | 36.7 | –
6 | C[C@H](Nc1ncnc(N)c1C#N)c1cc2ncc(Cl)n2nc1-c1ccc2c(c1)OCCO2 [Compound 70] | 37.4 | – | pIC50 (PI3K-δ (p110δ/p85α)): 7.66; pIC50 (PI3K-γ (p110γ); read-out: PI3K-γ IC50): 5.70
7 | CCC(Nc1ncnc2[nH]cnc12)c1cc2ncc(Cl)n2nc1-c1ccccc1F (single isomer, unassigned) [Compound 26] | – | – | pIC50 (PI3K-δ (p110δ/p85α)): 6.08
8 | Cc1cn2nc(-c3ccccc3)c([C@H](C)Nc3ncnc(N)c3C#N)cc2n1 [Compound 58] | 20.5 | 20.2 | –
9 | Cc1noc(-c2c(N)ncnc2N[C@@H](C)c2cc3ncc(Cl)n3nc2-c2ccccc2)n1 [Compound 82, (S)-N^4-(1-(3-chloro-6-phenylimidazo[1,2-b]pyridazin-7-yl)ethyl)-5-(3-methyl-1,2,4-oxadiazol-5-yl)pyrimidine-4,6-diamine] | 55.2 | – | –
10 | CC(Nc1ncnc2[nH]cnc12)c1cc2ncc(Cl)n2nc1-c1ccccc1 (single isomer, unassigned) [Compound 11] | 55.7 | – | –
11 | C[C@H](Nc1ncnc(N)c1-c1cnn(C)c1)c1cc2ncc(Cl)n2nc1-c1ccccc1 [Compound 57] | 6.3 | 30.3 | –
12 | CC(Nc1ncnc2[nH]cc(C#N)c12)c1cc2ncc(Cl)n2nc1-c1ccccc1 (single isomer, unassigned) [Compound 9] | – | −1.4 | –
13 | C[C@H](Nc1ncnc(N)c1C(N)=O)c1cc2ncc(Cl)n2nc1-c1ccccc1 [Compound 53, (S)-4-amino-6-((1-(3-chloro-6-phenylimidazo[1,2-b]pyridazin-7-yl)ethyl)amino)pyrimidine-5-carboxamide] | 30.5 | 34.3 | –
14 | CC(Nc1ncnc(N)c1C#N)c1cc2nccn2nc1-c1ccccc1 (centres unmarked) [Compound 1, 4-amino-6-((1-(6-phenylimidazo[1,2-b]pyridazin-7-yl)ethyl)amino)pyrimidine-5-carbonitrile] | 28.1 | 16.1 | –
15 | C[C@H](Nc1ncnc2[nH]cnc12)c1cc2ncc(Cl)n2nc1-c1cccc(F)c1 [Compound 16] | 27.5 | – | –
16 | C[C@@H](c1cc2ncc(Cl)n2nc1-c1ccccc1)n1ccc2c(N)ncnc21 [Compound 27, (S)-7-(1-(3-chloro-6-phenylimidazo[1,2-b]pyridazin-7-yl)ethyl)-7H-pyrrolo[2,3-d]pyrimidin-4-amine] | 9.5 | 24.9 | –

Row | Compound | PI3K-β IH% (PI3K-β (p110β/p85α)) [%] | PI3K-γ IH% (PI3K-γ (p110γ)) [%] | further results
17 | C[C@@H](c1cc2ncc(Cl)n2nc1-c1ccccc1)n1cnc2c(N)ncnc21 [Compound 20, (S)-9-(1-(3-chloro-6-phenylimidazo[1,2-b]pyridazin-7-yl)ethyl)-9H-purin-6-amine] | 17.4 | 43.1 | –
18 | Cc1nc(N)c(C#N)c(N[C@@H](C)c2cc3ncc(Cl)n3nc2-c2ccccc2)n1 [Compound 32] | 23.8 | – | –
19 | CCC(Nc1ncnc2[nH]cnc12)c1cc2ncc(Cl)n2nc1-c1ccccc1F (centres unmarked) [Compound 26] | −7.5 | 8 | –
20 | C[C@H](Nc1ncnc2[nH]ccc12)c1cc2ncc(Cl)n2nc1-c1ccccc1 [Compound 17] | 15.8 | 61.2 | –
21 | CC[C@H](Nc1ncnc2[nH]cnc12)c1cc2ncc(Cl)n2nc1-c1cccc(F)c1 [Compound 47] | 32.2 | 55.2 | –
22 | C[C@H](Nc1ncnc(N)c1C#N)c1cc2ncc(Cl)n2nc1-c1ccccc1O [Compound 69, (S)-4-amino-6-((1-(3-chloro-6-(2-hydroxyphenyl)imidazo[1,2-b]pyridazin-7-yl)ethyl)amino)pyrimidine-5-carbonitrile] | – | – | pIC50 (PI3K-β (p110β/p85α)): 6.88
23 | C[C@H](Nc1ncnc(N)c1-c1ccc(O)c(F)c1)c1cc2ncc(Cl)n2nc1-c1ccccc1 [Compound 38] | −2.2 | 54.3 | –
24 | CCC(Nc1ncnc(N)c1C#N)c1cc2ncc(Cl)n2nc1-c1cccc(F)c1 (centres unmarked) [Compound 24] | 46.6 | 44.5 | –
25 | C[C@H](Nc1ncnc(N)c1C(=O)O)c1cc2ncc(Cl)n2nc1-c1ccccc1 [Compound 52, (S)-4-amino-6-((1-(3-chloro-6-phenylimidazo[1,2-b]pyridazin-7-yl)ethyl)amino)pyrimidine-5-carboxylic acid] | −6.3 | −26.1 | –
26 | CCC(Nc1ncnc(N)c1C#N)c1cc2ncc(Cl)n2nc1-c1ccccn1 (centres unmarked) [Compound 29] | – | 35 | –
27 | C[C@@H](Nc1ncnc(N)c1C#N)c1cc2ncc(Cl)n2nc1-c1ccccc1 [Compound 3, (R)-4-amino-6-((1-(3-chloro-6-phenylimidazo[1,2-b]pyridazin-7-yl)ethyl)amino)pyrimidine-5-carbonitrile] | – | 6.9 | –
28 | C[C@@H](c1cc2ncc(Cl)n2nc1-c1ccccc1)N(C)c1ncnc(N)c1C#N [Compound 42, (S)-4-amino-6-((1-(3-chloro-6-phenylimidazo[1,2-b]pyridazin-7-yl)ethyl)(methyl)amino)pyrimidine-5-carbonitrile] | 7.4 | 18.2 | –
29 | C[C@H](Nc1ncnc(N)c1-c1cccc(F)c1)c1cc2ncc(Cl)n2nc1-c1ccccc1 [Compound 37, (S)-N^4-(1-(3-chloro-6-phenylimidazo[1,2-b]pyridazin-7-yl)ethyl)-5-(3-fluorophenyl)pyrimidine-4,6-diamine] | −0.4 | 27.5 | –
30 | CC[C@@H](Nc1ncnc2[nH]cnc12)c1cc2ncc(Cl)n2nc1-c1cccc(F)c1 [Compound 44] | 18.8 | 36.0 | –
31 | COc1ccc(-c2c(N)ncnc2N[C@@H](C)c2cc3ncc(Cl)n3nc2-c2ccccc2)cn1 [Compound 39] | −4.4 | 28.1 | –

Now from value to molecule, other results behind:

Row | PI3K-β IH% (PI3K-β (p110β/p85α)) [%] | PI3K-γ IH% (PI3K-γ (p110γ)) [%] | Compound | further results
32 | 37.7 | −2.3 | C[C@H](Nc1ncnc(N)c1C#N)c1cc2ncc(Cl)n2nc1-c1ccccn1 [Compound 8, (S)-4-amino-6-((1-(3-chloro-6-(pyridin-2-yl)imidazo[1,2-b]pyridazin-7-yl)ethyl)amino)pyrimidine-5-carbonitrile] | –
33 | 2.2 | −6.9 | CNc1ncnc(N[C@@H](C)c2cc3ncc(Cl)n3nc2-c2ccccc2)c1C#N [Compound 33, (S)-4-((1-(3-chloro-6-phenylimidazo[1,2-b]pyridazin-7-yl)ethyl)amino)-6-(methylamino)pyrimidine-5-carbonitrile] | –
34 | 24.4 | 26.5 | C[C@H](Nc1ncnc(N)c1C#N)c1cc2ncc(Cl)n2nc1-c1ccc2cccnc2c1 [Compound 61] | –
35 | 43.8 | 56.2 | C[C@H](Nc1ncnc(N)c1C#N)c1cc2ncc(Cl)n2nc1-c1cccc(C(C)(C)O)c1 (single isomer, unassigned) [Compound 79, (chiral)-4-amino-6-((1-(3-chloro-6-(3-(2-hydroxypropan-2-yl)phenyl)imidazo[1,2-b]pyridazin-7-yl)ethyl)amino)pyrimidine-5-carbonitrile] | –
36 | 49.4 | 40.8 | C[C@H](Nc1ncnc(N)c1C#N)c1cc2ncc(Cl)n2nc1-c1ccc2scnc2c1 [Compound 74] | –
37 | 48.1 | – | C[C@H](Nc1ncnc(N)c1C#N)c1cc2ncc(Cl)n2nc1-c1ccc(F)c(F)c1 [Compound 63] | –
38 | 44.1 | – | C[C@H](Nc1ncnc(N)c1C#N)c1cc2ncc(Cl)n2nc1-c1ccc(Cl)c(F)c1 [Compound 64] | –
39 | 54.9 | −14.3 | C[C@H](Nc1ncnc(N)c1C#N)c1cc2ncc(Cl)n2nc1-c1ccc2ccn(C)c2c1 [Compound 76] | PI3K-δ IH% (PI3K-δ (p110δ/p85α)): 48.9%
40 | −7.1 | 31.7 | C[C@@H](Nc1ncnc(N)c1C#N)c1cc2ncc(Cl)n2nc1-c1ccc2scnc2c1 [Compound 75] | PI3K-δ IH% (PI3K-δ (p110δ/p85α)): 1.0%
41 | −10.7 | – | CC[C@@H](Nc1ncnc(N)c1C#N)c1cc2ncc(Cl)n2nc1-c1ccccc1 [Compound 5, (R)-4-amino-6-((1-(3-chloro-6-phenylimidazo[1,2-b]pyridazin-7-yl)propyl)amino)pyrimidine-5-carbonitrile] | PI3K-δ IH% (PI3K-δ (p110δ/p85α)): 47.3%
42 | 60.8 | 62.8 | C[C@H](Nc1ncnc(N)c1C#N)c1cc2ncc(Cl)n2nc1-c1ccncc1 [Compound 73] | –
43 | – | 4.1 | CC[C@H](Nc1ncnc(N)c1C#N)c1cc2ncc(Cl)n2nc1-c1ccccc1 [Compound 6, (S)-4-amino-6-((1-(3-chloro-6-phenylimidazo[1,2-b]pyridazin-7-yl)propyl)amino)pyrimidine-5-carbonitrile] | –
44 | 67.6 | 64.6 | C[C@H](Nc1ncnc(N)c1C#N)c1cc2ncc(Cl)n2nc1-c1cc(F)ccc1F [Compound 35] | –
45 | 59 | – | C[C@H](Nc1ncnc(N)c1C#N)c1cc2ncc(Cl)n2nc1-c1cccc(F)c1 [Compound 15] | –
46 | 35.2 | 32.6 | C[C@H](Nc1ncnc(N)c1C#N)c1cc2ncc(Cl)n2nc1-c1ccc2ccccc2c1 [Compound 71] | –
